Test results published in patent US7161008B2, “Optically active β-aminoketones, optically active 1,3-amino alcohols and processes for preparing them” (Sanofi - Aventis Deutschland GmbH, priority 2002, dated 2007).

Assay: Syn/anti-isomerization of the Mannich salt via retro-Mannich/Mannich reaction in DMSO-d6 solution at 300 K, 1H NMR monitoring
Type: physicochemical
Settings: for cis-isomer [%] / trans-isomer [%]: DMSO-d6, 300 K, 1H NMR
Experimental: Electron-withdrawing substituents in the aldehyde component of formula (IV) reduced the retro-Mannich tendency. The 1H NMR monitoring of the syn/anti-isomerization of a syn-Mannich salt of formula (III) via retro-Mannich reaction at 300 K in DMSO-d6 solution can be seen in Example 28.
Syn/anti-isomerization of the Mannich base mandelate from […] in DMSO-d^6 solution at 300K. Kinetics and equilibrium location of the retro-Mannich/Mannich reactions:
8 mg of the product from Example 27 were dissolved in DMSO-d^6 as rapidly as possible in a ^1H NMR tube at room temperature. The sample was immediately introduced into the NMR instrument (400 MHz, 300.0 K), shimmed rapidly and analyzed. The first spectrum was obtained 3.5 min after the sample dissolution. […] Further spectra of the solution were each obtained at an interval of 3–4 min. […] The variation can be seen from the graphics and the table of the appendix. 69 min after dissolution of the Mannich salt, the NMR monitoring was aborted at a syn/anti ratio of 50:50. A repeat measurement 20.5 hours after dissolution of the Mannich salt indicated a syn/anti ratio of 41.5:58.5. After a total of 44.5 hours, this ratio was unchanged. The thermodynamic equilibrium of the two isomers is thus achieved in less than 20 h and the anti-isomer is preferred in solution. In contrast, the four-component coupling (Example 27) results in the crystallization of virtually pure syn-isomer, apparently owing to lower solubility. Even the spectrum obtained 3.5 min after sample dissolution indicates (in addition to the syn- and anti-isomers of the Mannich salt) the presence of the retro-Mannich products 2-pyridylmethyl phenyl ketone (formula VI; singlet at δ is 4.53 ppm) and tolylaldehyde (or corresponding imine) (formula IV or X, singlets at δ is 2.40 and 9.12 ppm) in small but significant amounts. The best fitting curve between the measurement points of the graph was obtained by 3rd order polynomial formation.

[1] = 3.5 min after sample dissolution
[2] = 6.5 min after sample dissolution
[3] = 10.5 min after sample dissolution
[4] = 13.5 min after sample dissolution
[5] = 17.5 min after sample dissolution
[6] = 20.5 min after sample dissolution
[7] = 24.5 min after sample dissolution
[8] = 27.5 min after sample dissolution
[9] = 31.5 min after sample dissolution
[10] = 34.5 min after sample dissolution
[11] = 37.5 min after sample dissolution
[12] = 41.5 min after sample dissolution
[13] = 44.5 min after sample dissolution
[14] = 48.5 min after sample dissolution
[15] = 51.5 min after sample dissolution
[16] = 55.5 min after sample dissolution
[17] = 58.5 min after sample dissolution
[18] = 61.5 min after sample dissolution
[19] = 65.5 min after sample dissolution
[20] = 68.5 min after sample dissolution
[21] = 1230 min after sample dissolution
[22] = 2670 min after sample dissolution

cis-isomer [%] [1]: 95.1%
trans-isomer [%] [1]: 4.9%
cis-isomer [%] [2]: 92.5%
trans-isomer [%] [2]: 7.5%
cis-isomer [%] [3]: 89.0%
trans-isomer [%] [3]: 11.0%
cis-isomer [%] [4]: 85.0%
trans-isomer [%] [4]: 15.0%
cis-isomer [%] [5]: 81.7%
trans-isomer [%] [5]: 18.3%
cis-isomer [%] [6]: 77.3%
trans-isomer [%] [6]: 22.7%
cis-isomer [%] [7]: 76.8%
trans-isomer [%] [7]: 23.2%
cis-isomer [%] [8]: 71.8%
trans-isomer [%] [8]: 28.2%
cis-isomer [%] [9]: 68.0%
trans-isomer [%] [9]: 32.0%
cis-isomer [%] [10]: 66.2%
trans-isomer [%] [10]: 33.8%
cis-isomer [%] [11]: 63.8%
trans-isomer [%] [11]: 36.2%
cis-isomer [%] [12]: 61.7%
trans-isomer [%] [12]: 38.3%
cis-isomer [%] [13]: 60.1%
trans-isomer [%] [13]: 39.9%
cis-isomer [%] [14]: 58.7%
trans-isomer [%] [14]: 41.3%
cis-isomer [%] [15]: 56.8%
trans-isomer [%] [15]: 43.2%
cis-isomer [%] [16]: 54.5%
trans-isomer [%] [16]: 45.5%
cis-isomer [%] [17]: 53.6%
trans-isomer [%] [17]: 46.4%
cis-isomer [%] [18]: 52.9%
trans-isomer [%] [18]: 47.1%
cis-isomer [%] [19]: 52.0%
trans-isomer [%] [19]: 48.0%
cis-isomer [%] [20]: 50.5%
trans-isomer [%] [20]: 49.5%
cis-isomer [%] [21]: 41.5%
trans-isomer [%] [21]: 58.5%
cis-isomer [%] [22]: 41.6%
trans-isomer [%] [22]: 58.4%
syn/anti ratio of the Mannich salt in solution, compared with 20.5 hours (DMSO-d6, 300.0 K, after a total of 44.5 hours): unchanged
time to thermodynamic equilibrium of syn- and anti-isomers (DMSO-d6 solution, 300 K): less than 20 h
SMILES: Cc1ccc(C(Nc2ccccn2)C(C(=O)c2ccccc2)c2ccccn2)cc1.O=C(O)C(O)c1ccccc1 (stereo not shown) [Example 27]
